From the supplement of paper PMC10307832

What was measured:
Assay in all cases: relative viability (nuclei count vs DMSO), 5 days (fraction); higher = more cells survive
[1] = compound: COC1=C(C=C(C=C1)C2=CC3=NC=CN3C(=N2)NC4=C(C=CC=N4)C(=O)N)OC [BAY61-3606] + CCNC(=O)c1noc(-c2cc(C(C)C)c(O)cc2O)c1-c1ccc(CN2CCOCC2)cc1 [Luminespib] (partner 0.01 µM)
Summary of the method: (§1)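 Relative viability was taken as the ratio of nuclei in treated wells to nuclei in vehicle wells. Lung cancer cell lines in 1536-well plates received compounds by pin tool one day after seeding, either one drug alone or a fixed anchor-drug dose plus five library-drug doses (not always all listed) in √10 steps. Nuclei were counted on 4× images after 5 days of treatment, and values are medians of duplicate plates.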

[2] = compound: COC1=C(C=C(C=C1)C2=CC3=NC=CN3C(=N2)NC4=C(C=CC=N4)C(=O)N)OC [BAY61-3606] + NC(=O)Nc1cc(-c2cccc(F)c2)sc1C(=O)N[C@H]1CCCNC1 [AZD7762] (partner 0.2 µM)
Summary of the method: as §1

[3] = compound: COc1cccc2c1C(=O)c1c(O)c3c(c(O)c1C2=O)C[C@@](O)(C(=O)CO)C[C@@H]3O[C@H]1C[C@H](N)[C@H](O)[C@H](C)O1 [Doxorubicin] + CC(=O)c1c(C)c2cnc(Nc3ccc(N4CCNCC4)cn3)nc2n(C2CCCC2)c1=O [Palbociclib] (partner 0.5 µM)
Summary of the method: as §1

[4] = compound: COC1=C(C=C(C=C1)C2=CC3=NC=CN3C(=N2)NC4=C(C=CC=N4)C(=O)N)OC [BAY61-3606] + CC(=O)c1c(C)c2cnc(Nc3ccc(N4CCNCC4)cn3)nc2n(C2CCCC2)c1=O [Palbociclib] (partner 0.5 µM)
Summary of the method: as §1

Row | Cell Line | relative viability ([1]; first compound 0.02 µM) | relative viability ([1]; first compound 0.06325 µM) | relative viability ([1]; first compound 0.2 µM) | relative viability ([1]; first compound 0.6325 µM) | relative viability ([1]; first compound 2 µM) | relative viability ([2]; first compound 0.02 µM) | relative viability ([2]; first compound 0.06325 µM) | relative viability ([2]; first compound 0.2 µM) | relative viability ([2]; first compound 0.6325 µM) | relative viability ([2]; first compound 2 µM) | relative viability ([3]; first compound 0.001 µM) | relative viability ([3]; first compound 0.003162 µM) | relative viability ([3]; first compound 0.01 µM) | relative viability ([3]; first compound 0.03162 µM) | relative viability ([3]; first compound 0.1 µM) | relative viability ([4]; first compound 0.02 µM) | relative viability ([4]; first compound 0.06325 µM) | relative viability ([4]; first compound 0.2 µM) | relative viability ([4]; first compound 0.6325 µM) | relative viability ([4]; first compound 2 µM)
1 | NCI-H1755 | 0.367 | 0.495 | 0.397 | 0.433 | 0.384 | 0.439 | 0.483 | 0.462 | 0.422 | 0.59 | 0.473 | 0.481 | 0.434 | 0.474 | 0.468 | 0.435 | 0.451 | 0.482 | 0.495 | 0.444
2 | H3255 | 0.966 | 0.896 | 0.951 | 1.06 | 0.961 | 0.941 | 0.775 | 1.03 | 0.942 | 0.902 | 0.306 | 0.315 | 0.306 | 0.348 | 0.263 | 0.3 | 0.307 | 0.301 | 0.334 | 0.307
3 | 201T | 1.11 | 1.03 | 1.04 | 1.16 | 1.05 | 0.592 | 0.759 | 0.752 | 0.661 | 0.688 | 0.351 | 0.321 | 0.345 | 0.349 | 0.354 | 0.346 | 0.349 | 0.341 | 0.397 | 0.366
4 | CAL-12T | 0.49 | 0.439 | 0.209 | 0.789 | 0.187 | 0.693 | 0.577 | 0.677 | 0.634 | 0.71 | 0.41 | 0.527 | 0.486 | 0.279 | 0.174 | 0.634 | 0.504 | 0.615 | 0.287 | 0.246
5 | NCI-H1792 | 0.462 | 0.404 | 0.439 | 0.581 | 0.274 | 0.783 | 0.538 | 0.802 | 0.62 | 0.455 |  | 0.668 | 0.651 | 0.542 | 0.558 | 0.677 | 0.61 | 0.659 | 0.747 | 0.698
6 | NCI-H2085 | 0.416 | 0.469 | 0.486 | 0.443 | 0.412 | 1.01 | 1.08 | 0.969 | 1.1 | 0.942 | 0.472 | 0.458 | 0.461 | 0.53 | 0.512 | 0.461 | 0.487 | 0.45 | 0.46 | 0.435
